Results taken from PubChem BioAssay (NCI).
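How tested: cells in 96-well plates exposed to compound for 48 hours at five concentrations. GI50 = concentration required for 50% inhibition of growth. At the TGI there is no net growth.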

How the values were obtained:
Experiment in all cases: inhibition of tumour cell growth, NCI panel, 48 h
NCI-H226 lung = test system: NCI-H226 lung
OVCAR-4 ovarian = test system: OVCAR-4 ovarian
A549 NSCLC = test system: A549 NSCLC
786-0 renal = test system: 786-0 renal
SK-MEL-5 melanoma = test system: SK-MEL-5 melanoma
DU-145 prostate = test system: DU-145 prostate
IGROV1 ovarian = test system: IGROV1 ovarian
HOP-92 NSCLC = test system: HOP-92 NSCLC
NCI-H460 lung = test system: NCI-H460 lung
CCRF-CEM leukemia = test system: CCRF-CEM leukemia
OVCAR-5 ovarian = test system: OVCAR-5 ovarian
HS 578T breast = test system: HS 578T breast
SK-OV-3 ovarian = test system: SK-OV-3 ovarian
NCI-H23 lung = test system: NCI-H23 lung
SN12C renal = test system: SN12C renal
CAKI-1 renal = test system: CAKI-1 renal
SF-539 CNS = test system: SF-539 CNS
TK-10 renal = test system: TK-10 renal
NCI-H522 lung = test system: NCI-H522 lung
RXF 393 renal = test system: RXF 393 renal
LOX IMVI melanoma = test system: LOX IMVI melanoma
HOP-62 NSCLC = test system: HOP-62 NSCLC
U251 CNS = test system: U251 CNS
MOLT-4 leukemia = test system: MOLT-4 leukemia
SK-MEL-28 melanoma = test system: SK-MEL-28 melanoma
HT29 colon = test system: HT29 colon
OVCAR-3 ovarian = test system: OVCAR-3 ovarian
M14 melanoma = test system: M14 melanoma
KM12 colon = test system: KM12 colon
UACC-62 melanoma = test system: UACC-62 melanoma
T-47D breast = test system: T-47D breast
SW-620 colon = test system: SW-620 colon
MDA-MB-231 breast = test system: MDA-MB-231 breast
SF-268 CNS = test system: SF-268 CNS
MALME-3M melanoma = test system: MALME-3M melanoma
OVCAR-8 ovarian = test system: OVCAR-8 ovarian
PC-3 prostate = test system: PC-3 prostate
UO-31 renal = test system: UO-31 renal
SR leukemia = test system: SR leukemia
ACHN renal = test system: ACHN renal
SK-MEL-2 melanoma = test system: SK-MEL-2 melanoma
MDA-MB-435 = test system: MDA-MB-435
A498 renal = test system: A498 renal
NCI/ADR-RES ovarian = test system: NCI/ADR-RES ovarian
UACC-257 melanoma = test system: UACC-257 melanoma
SF-295 CNS = test system: SF-295 CNS
SNB-75 CNS = test system: SNB-75 CNS
K-562 leukemia = test system: K-562 leukemia
HL-60(TB) leukemia = test system: HL-60(TB) leukemia
MCF7 breast = test system: MCF7 breast
HCT-116 colon = test system: HCT-116 colon
EKVX NSCLC = test system: EKVX NSCLC
HCT-15 colon = test system: HCT-15 colon
RPMI-8226 leukemia = test system: RPMI-8226 leukemia
COLO 205 colon = test system: COLO 205 colon
BT-549 breast = test system: BT-549 breast
HCC-2998 colon = test system: HCC-2998 colon
SNB-19 CNS = test system: SNB-19 CNS

CCOC(=O)c1c2c(n3ccc(NC(=O)CCN4CCCCC4)cc13)C(=O)c1ncccc1C2=O
GI50 (NCI-H226 lung): 4.32 µM
TGI (NCI-H226 lung): 11.3 µM
GI50 (OVCAR-4 ovarian): 1.42 µM
TGI (OVCAR-4 ovarian): 3.56 µM
GI50 (A549 NSCLC): 0.0547 µM
TGI (A549 NSCLC): 2.81 µM
GI50 (786-0 renal): 0.124 µM
TGI (786-0 renal): 2.32 µM
GI50 (SK-MEL-5 melanoma): 0.541 µM
TGI (SK-MEL-5 melanoma): 1.98 µM
GI50 (DU-145 prostate): 1.2 µM
TGI (DU-145 prostate): 2.54 µM
GI50 (IGROV1 ovarian): 0.348 µM
TGI (IGROV1 ovarian): 2.54 µM
GI50 (HOP-92 NSCLC): 9.63 µM
TGI (HOP-92 NSCLC): 24.6 µM
GI50 (NCI-H460 lung): < 0.01 µM
TGI (NCI-H460 lung): 0.443 µM
GI50 (CCRF-CEM leukemia): 1.18 µM
TGI (CCRF-CEM leukemia): 3.68 µM
GI50 (OVCAR-5 ovarian): 1.38 µM
TGI (OVCAR-5 ovarian): 3.2 µM
GI50 (HS 578T breast): 0.351 µM
TGI (HS 578T breast): 6.57 µM
GI50 (SK-OV-3 ovarian): 0.0953 µM
TGI (SK-OV-3 ovarian): 18.7 µM
GI50 (NCI-H23 lung): 0.0369 µM
TGI (NCI-H23 lung): 2.03 µM
GI50 (SN12C renal): 0.111 µM
TGI (SN12C renal): 2.33 µM
GI50 (CAKI-1 renal): 0.0279 µM
TGI (CAKI-1 renal): 4.18 µM
GI50 (SF-539 CNS): 0.292 µM
TGI (SF-539 CNS): 2 µM
GI50 (TK-10 renal): 0.171 µM
TGI (TK-10 renal): 2.25 µM
GI50 (NCI-H522 lung): 0.0158 µM
TGI (NCI-H522 lung): 1.72 µM
GI50 (RXF 393 renal): 0.256 µM
TGI (RXF 393 renal): 2.4 µM
GI50 (LOX IMVI melanoma): 0.301 µM
TGI (LOX IMVI melanoma): 0.777 µM
GI50 (HOP-62 NSCLC): 0.0229 µM
TGI (HOP-62 NSCLC): 1.83 µM
GI50 (U251 CNS): 1.09 µM
TGI (U251 CNS): 2.47 µM
GI50 (MOLT-4 leukemia): 1.42 µM
TGI (MOLT-4 leukemia): 4.04 µM
GI50 (SK-MEL-28 melanoma): 0.668 µM
TGI (SK-MEL-28 melanoma): 2.38 µM
GI50 (HT29 colon): 1.3 µM
TGI (HT29 colon): 3.1 µM
GI50 (OVCAR-3 ovarian): 1.14 µM
TGI (OVCAR-3 ovarian): 2.64 µM
GI50 (M14 melanoma): 0.17 µM
TGI (M14 melanoma): 1.76 µM
GI50 (KM12 colon): 1.22 µM
TGI (KM12 colon): 2.76 µM
GI50 (UACC-62 melanoma): 0.281 µM
TGI (UACC-62 melanoma): 2.65 µM
GI50 (T-47D breast): 8 µM
TGI (T-47D breast): 30.2 µM
GI50 (SW-620 colon): 0.0269 µM
TGI (SW-620 colon): 2.38 µM
GI50 (MDA-MB-231 breast): 1.79 µM
TGI (MDA-MB-231 breast): 3.77 µM
GI50 (SF-268 CNS): 0.0503 µM
TGI (SF-268 CNS): 2.25 µM
GI50 (MALME-3M melanoma): 1.16 µM
TGI (MALME-3M melanoma): 2.73 µM
GI50 (OVCAR-8 ovarian): 1.28 µM
TGI (OVCAR-8 ovarian): 3.71 µM
GI50 (PC-3 prostate): 1.2 µM
TGI (PC-3 prostate): 2.63 µM
GI50 (UO-31 renal): 0.0315 µM
TGI (UO-31 renal): 1.46 µM
GI50 (SR leukemia): < 0.01 µM
TGI (SR leukemia): 1.2 µM
GI50 (ACHN renal): < 0.01 µM
TGI (ACHN renal): 1.51 µM
GI50 (SK-MEL-2 melanoma): 3.99 µM
TGI (SK-MEL-2 melanoma): 23.8 µM
GI50 (MDA-MB-435): 1.16 µM
TGI (MDA-MB-435): 2.47 µM
GI50 (A498 renal): 0.806 µM
TGI (A498 renal): 29 µM
GI50 (NCI/ADR-RES ovarian): 1.14 µM
TGI (NCI/ADR-RES ovarian): 3.66 µM
GI50 (UACC-257 melanoma): 2.45 µM
TGI (UACC-257 melanoma): 7.99 µM
GI50 (SF-295 CNS): 0.121 µM
TGI (SF-295 CNS): 1.92 µM
GI50 (SNB-75 CNS): 0.506 µM
TGI (SNB-75 CNS): 5.98 µM
GI50 (K-562 leukemia): 0.117 µM
TGI (K-562 leukemia): 2.57 µM
GI50 (HL-60(TB) leukemia): 1.46 µM
TGI (HL-60(TB) leukemia): 3.46 µM
GI50 (MCF7 breast): < 0.01 µM
TGI (MCF7 breast): 1.95 µM
GI50 (HCT-116 colon): 0.106 µM
TGI (HCT-116 colon): 2.21 µM
GI50 (EKVX NSCLC): 3.03 µM
TGI (EKVX NSCLC): 8.47 µM
GI50 (HCT-15 colon): 1.13 µM
TGI (HCT-15 colon): 2.86 µM
GI50 (RPMI-8226 leukemia): 1.41 µM
TGI (RPMI-8226 leukemia): 4.49 µM
GI50 (COLO 205 colon): 1.18 µM
TGI (COLO 205 colon): 2.75 µM
GI50 (BT-549 breast): 4.1 µM
TGI (BT-549 breast): 21.4 µM
GI50 (HCC-2998 colon): 1.53 µM
TGI (HCC-2998 colon): 3.24 µM
GI50 (SNB-19 CNS): 1.06 µM
TGI (SNB-19 CNS): 3.21 µM
